For data set [1], the system named is patient-derived GBM gliomaspheres. The data set is described as follows: Dynamic BH3 profiling (apoptotic priming, cytochrome c release). It counts as cell-based, human. As to the method: GBM gliomaspheres were first disassociated to single-cell suspensions with TrypLE (Gibco) and resuspended in MEB buffer (150 mM Mannitol 10 mM HEPES-KOH, 50 mM KCl, 0.02 mM EGTA, 0.02 mM EDTA, 0.1% BSA, 5 mM Succinate). 50 μl of cell suspension (3×10^4 cells/well) were plated in wells holding 50 μL MEB buffer containing 0.002% digitonin and indicated peptides in 96-well plates. Plates were then incubated at 25° C. for 50 min. […] Samples were stained overnight with 20 μL of staining solution (10% BSA, 2% Tween 20 in PBS) containing DAPI and anti-cytochrome c (BioLegend). The following day, cytochrome c release was quantified using BD LSRII flow cytometer. […] Delta priming refers to the difference in amount of cytochrome c release between vehicle treated cells and drug treated cells.

Data set [2] shares this test system. The data set is described as follows: Annexin V apoptosis assay. It counts as cell-based, human. The following applies: for synergy with p53 activation (nutlin), cell death by annexin V: FIG. 37A, gliomasphere samples treated for 72 hours, combination with nutlin; for synergy with nutlin treatment (annexin V): HK301 gliomaspheres, in combination with nutlin 2.5 μM. As to the method:
Cells were collected and analyzed for Annexin V and PI staining according to manufacturer's protocol (BD Biosciences). Briefly, cells were plated at 5×10^4 cells/ml and treated with appropriate drugs. Following indicated time points, cells were collected, trypsinized, washed with PBS, and stained with Annexin V and PI for 15 minutes. Samples were then analyzed using the BD LSRII flow cytometer.
Annexin V staining was measured following 72 hrs of treatment. Using the Chalice software, the response of the combination was compared to its single agents. The combinatorial effects were calculated using the synergy score.

Data set [3] in a line: Pharmacokinetic / brain penetration studies in mice. It counts as in vivo. The following applies: male, CD-1, mouse; for Kp uu: Table 4, unbound partition coefficient of the brain and plasma, at equilibrium; for Kp: brain / plasma, non-tumor bearing mice. Here is the method: Pharmacokinetic studies were performed on male CD-1 mice aged 8-10 weeks. Mice were dosed as indicated in duplicates. At the time points, whole blood was obtained by retro-orbital bleeding and brain tissue was harvested. Blood samples were centrifuged to obtain plasma and brain tissue was washed and homogenized. Samples were extracted with acetonitrile and supernatant was dried using a speed-vac. Dried samples were solubilized in 50:50:0.1 acetonitrile:water:formic acid and quantified on an Agilent 6400 series Triple Quadrupole LC/MS.
Disclosed in table 5 Brain to plasma percentages and unbound ratios of drugs in brain to plasma of indicated drugs in non-tumor bearing mice

Data set [4] in a line: in vitro.
For data set [5] the following is noted: cited from earlier work; for Plasma: Daily Dose: Afatinib 50, Crizotinib 500, Erlotinib 150, Gefitinib 250, Lapatinib 1250.
The nature of data set [6]: Idasanutlin brain and plasma concentrations by mass spectrometry. It counts as in vivo. Conditions: male, CD-1, mouse, mice with an intact blood-brain-barrier, 50 mg/kg oral gavage. Here is the method: Male CD-1 mice (6-8 weeks old) were treated with 50 mg/kg Idasanutlin in duplicate through oral gavage. At 0.5, 1, 2, 4, 6, 8, 12, and 24 hr after administration, mice were sacrificed, blood was harvested by retro-orbital bleeding, and brain tissue was collected. Whole blood from mice was centrifuged to isolate plasma. Idasanutlin was isolated by liquid-liquid extraction from plasma: 50 μL plasma was added to 2 μL internal standard and 100 μL acetonitrile. Mouse brain tissue was washed with 2 mL cold PBS and homogenized using a tissue homogenizer with fresh 2 mL cold PBS. Idasanutlin was then isolated and reconstituted in a similar manner by liquid-liquid extraction: 100 μL brain homogenate was added to 2 μL internal standard and 200 μL acetonitrile. After vortex mixing, the samples was centrifuged. The supernatant was removed and evaporated by a rotary evaporator and reconstituted in 100 μL 50:50 water: acetonitrile.
Chromatographic separations were performed on a 100×2.1 mm Phenomenex Kinetex C18 column (Kinetex) using the 1290 Infinity LC system (Agilent). The mobile phase was composed of solvent A: 0.1% formic acid in Milli-Q water, and B: 0.1% formic acid in acetonitrile. […] Analyte signal was normalized to the internal standard and concentrations were determined by comparison to the calibration curve (0.5, 5, 50, 250, 500, 2000 nM). […]

Data set [7] relates to p53. The data set is described as follows: Immunohistochemistry of p53 in orthotopic tumor-bearing mice. It counts as in vivo. Conditions: 50 mg/kg, 36 hours. Here is the method:
Immunohistochemistry was performed on 4 μm sections that were cut from FFPE (formalin-fixed, paraffin-embedded) blocks. Sections were then deparaffinised with xylene and rehydrated through graded ethanol. […] Tissue sections were then treated with 3% hydrogen peroxide (LOT 161509; Fisher Chemical) and with Background Sniper (Biocare Medical, Concord, Calif., USA) to reduce nonspecific background staining. Primary antibody for p53 (Cell Signaling, 2527) was applied in a 1:150 dilution for 80 min followed by detection with the MACH 3 Rabbit HRP-Polymer Detection kit (Biocare Medical). Visualization was achieved using VECTOR NovaRED (SK-4800; Vector Laboratories, Inc.) as chromogen. Lastly, sections were counterstained with Tacha's Automated Hematoxylin (Biocare Medical).

Data set [8] has as its target T1, EGFR (Homo sapiens, UniProt P00533).
T1 construct: purchased Promega V3831
Kind of data set: Cell Free EGFR Kinase Assay (ADP-Glo). It counts as biochemical. The following applies: FIG. 3. As to the method:
The Cell Free EGFR Kinase Assay was performed using the EGFR Kinase System (Promega #V3831). […] The ADP-Glo Kinase Assay (Promega #V6930) was used to measure EGFR activity in the presence of inhibitors.
Background: In ADP-Glo the light output rises with the ADP produced.

In data set [9] the test system is GBM39. Kind of data set: GI50 assay (Cell Titer Glo proliferation, 3 days). Conditions: Homo sapiens, 72 h; GBM39, 3 days. It counts as cell-based, human. In general terms: In ATP-based viability assays light output follows the ATP content of the culture.
A short description of data set [10]: Protein binding (fraction unbound in blood and brain).
For data set [11], the system named is HK301. Kind of data set: GI50 assay (Cell Titer Glo proliferation, 3 days). It counts as cell-based, human. The following applies: Homo sapiens, 72 h; HK301, 3 days; read-out: HK301 GI50.
In data set [12] the test system is BIM, PUMA; PI3K-AKT-mTOR signaling. Kind of data set: Immunoblotting. It counts as cell-based, human. Conditions: HK254 and HK393, 4 hours. Here is the method: Cells were collected and lysed in RIPA buffer (Boston BioProducts) containing Halt Protease and Phosphatase Inhibitor (Thermo Fischer Scientific). Lysates were centrifuged at 14,000×g for 15 min at 4° C. […] Membranes were developed using the SuperSignal system (Thermo Fischer Scientific).
For orientation: A western blot detects proteins with antibodies after separation by electrophoresis.

The test system of data set [13] is patient-derived GBM gliomaspheres. The data set is described as follows: 18F-FDG uptake assay. It counts as cell-based, human. The following applies: HK393 and HK254 (EGFRi non-responders), pictilisib 1 μM, 4 hours. Here is the method: Cells were plated at 5×10^4 cells/ml and treated with designated drugs for indicated time points. Following appropriate treatment, cells were collected and resuspended in glucose-free DMEM/F12 (USBiological) containing ^18F-FDG (radioactivity 1 μCi/mL). Cells were incubated at 37° C. for 1 hr and then washed three times with ice cold PBS. Radioactivity of each sample was then measured using a gamma counter.

Setting [14] is: HK393 and HK254 (EGFRi non-responders), 24 hours.
Where [15] appears, read: Daily Dose: Afatinib 50, Alectinib 1200, Crizotinib 500, Erlotinib 150, Gefitinib 250, Lapatinib 1250.
[16] abbreviates: higher dose: Erlotinib 1500 (weekly), Gefitinib 750-1000.

This is an account of results in patent US11377451B2, “Compositions and methods for treating cancer” (The Regents of the University of California, priority 2019, dated 2022).

Structures are written as SMILES. Values joined by “and” are separate entries in the source; they are usually repeats but may differ in a detail not shown here. Identical values can stand only once. Like-named read-outs stand apart in the source and are kept apart here.

T1 sequence (P00533 25-1210): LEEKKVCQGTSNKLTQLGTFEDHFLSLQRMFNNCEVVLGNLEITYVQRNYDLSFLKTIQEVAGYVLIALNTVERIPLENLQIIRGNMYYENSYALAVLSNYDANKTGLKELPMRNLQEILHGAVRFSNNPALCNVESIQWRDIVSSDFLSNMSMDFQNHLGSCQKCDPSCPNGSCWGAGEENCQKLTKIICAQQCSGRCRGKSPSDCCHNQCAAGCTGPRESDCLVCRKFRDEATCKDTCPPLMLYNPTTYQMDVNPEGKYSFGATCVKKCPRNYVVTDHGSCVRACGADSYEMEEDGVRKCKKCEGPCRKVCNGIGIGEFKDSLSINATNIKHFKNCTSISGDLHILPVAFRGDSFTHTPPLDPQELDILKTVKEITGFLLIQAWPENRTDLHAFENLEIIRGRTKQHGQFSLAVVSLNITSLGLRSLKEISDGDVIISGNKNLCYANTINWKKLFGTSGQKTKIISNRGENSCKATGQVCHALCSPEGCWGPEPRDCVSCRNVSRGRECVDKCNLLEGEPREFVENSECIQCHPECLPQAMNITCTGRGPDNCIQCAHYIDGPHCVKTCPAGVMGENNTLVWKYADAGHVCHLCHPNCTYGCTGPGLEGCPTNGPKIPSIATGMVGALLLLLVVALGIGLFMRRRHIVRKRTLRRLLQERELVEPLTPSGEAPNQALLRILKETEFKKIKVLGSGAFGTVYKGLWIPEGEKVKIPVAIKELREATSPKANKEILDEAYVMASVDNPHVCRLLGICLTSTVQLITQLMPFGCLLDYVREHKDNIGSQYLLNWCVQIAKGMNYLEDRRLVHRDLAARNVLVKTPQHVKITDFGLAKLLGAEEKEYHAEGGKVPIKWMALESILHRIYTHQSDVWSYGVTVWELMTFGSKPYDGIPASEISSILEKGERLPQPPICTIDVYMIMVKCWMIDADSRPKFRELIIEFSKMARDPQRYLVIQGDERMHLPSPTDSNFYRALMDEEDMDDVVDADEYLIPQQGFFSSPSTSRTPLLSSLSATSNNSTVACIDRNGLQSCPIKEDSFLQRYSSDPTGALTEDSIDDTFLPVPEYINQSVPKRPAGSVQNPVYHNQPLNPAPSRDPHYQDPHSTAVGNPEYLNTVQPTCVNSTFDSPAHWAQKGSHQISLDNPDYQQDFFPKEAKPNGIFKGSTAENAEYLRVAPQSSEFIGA

`O=CC[C@@H](O)[C@H](O)[C@H](O)CO` [2DG, 2-deoxyglucose]: the apoptotic priming result in data set [1] (HK301 (EGFRi metabolic responder), 2DG) is “stimulated apoptotic priming”; in data set [1] (setting [14]), “completely mirrored these effects”. Besides, the “lethality in combination with nutlin” value in data set [2] (EGFRi non-responder cells (HK393, HK254), combined with nutlin) is “significant, p53-dependent synergistic lethality”. In [2], the “synergy with p53 activation (nutlin), cell death by annexin V” value is “unexpectedly synergizes with p53 activation”. Besides, the “synergy with nutlin treatment (annexin V)” value (from here on “synergy … (annexin V)”) in data set [2] (72 hours) was “synergy with nutlin”.
In the case of `COc1cc2ncnc(Nc3cccc(Cl)c3F)c2cc1OC(=O)N1CCN(C)C[C@H]1C` [AZD3759], in data set [3], the Kp uu is 0.802. In addition, the unbound share (fraction unbound) (in general, free concentration divided by total concentration) came out at 0.052 in [4] (Fu (blood)) and 0.0144 in data set [4] (Fu (brain)).
In the case of `CN(C)C/C=C/C(=O)Nc1cc2c(Nc3ccc(F)c(Cl)c3)ncnc2cc1O[C@H]1CCOC1` [Afatinib, afatinib], in [5] (setting [15]), the “Brain Penetration rate (%)” value was 0.7% and the “CSF” value is 0.46 ng/mL. The “Plasma” value in data set [5] was 66.7 ng/mL.
In the case of `CCc1cc2c(cc1N1CCC(N3CCOCC3)CC1)C(C)(C)c1[nH]c3cc(C#N)ccc3c1C2=O` [Alectinib], in data set [5] (setting [15]), the “Brain Penetration rate (%)” value is 86.7%.
In the case of `C[C@@H](Oc1cc(-c2cnn(C3CCNCC3)c2)cnc1N)c1c(Cl)ccc(F)c1Cl` [Crizotinib], in data set [5] (setting [15]), the “Brain Penetration rate (%)” value is listed as 0.26%. In addition, in data set [5], the “Plasma” value is 237 ng/mL.
On to `COc1cc2ncnc(Nc3ccc(F)c(Cl)c3)c2cc1OCCCN1CCOCC1` [Gefitinib, gefitinib], for which, in [5] (setting [15]), the “Brain Penetration rate (%)” value is on record as 1.13 ± 0.36% and the “CSF” value is 3.7 ± 1.9 ng/mL. Besides, in data set [5] (setting [16]), the “Brain Penetration rate (%)” value is on record as 1.07-3.58% and the “CSF” value was 14.7 to 143.1 ng/mL.
Take `COc1cc(C(=O)O)ccc1NC(=O)[C@@H]1N[C@@H](CC(C)(C)C)[C@](C#N)(c2ccc(Cl)cc2F)[C@H]1c1cccc(Cl)c1F` [Idasanutlin]: in [6], the Kp – broadly, tissue or fluid exposure divided by exposure in the circulation – turned out to be 0.35. Moreover, the “p53 stabilization in tumor” value in data set [7] is recorded as “stabilizes p53”.
For `Fc1c(Cl)cccc1Nc1ncnc2cc3c(cc12)OCCO3` [JGK010], the half-inhibitory concentration (IC50) (usually the point on the concentration scale where inhibition reaches its midpoint) in data set [8] is approximately 8 nM. The GI50 – broadly, the concentration at which growth is held to half of that of the control – came to 2590 nM in data set [9] and 780 nM in [11]. Moreover, the Kp in data set [3] was determined as 1.06. In data set [3], this compound showed a Kp uu of 1.04. Also, the “Bound (blood)” value in data set [10] (blood) came to 98.88%. Besides, the unbound share (fraction unbound) in data set [10] (blood, Fu (blood)) turned out to be 0.0112; in data set [10] (brain, Fu (brain)), 0.011. For the same compound, the “Bound (brain)” value in data set [10] (brain) was found to be 98.90%.
`Fc1c(Br)cccc1Nc1ncnc2cc3c(cc12)O[C@@H](CN1CCNCC1)CO3` [JGK083S, (7S)—N-(3-Bromo-2-fluorophenyl)-7-[(piperazin-1-yl)methyl]-7,8-dihydro[1,4]dioxino [2,3-g]quinazolin-4-amine]: the results for the concentration for 50% growth inhibition (GI50) in data set [9] and in [11] were 841 nM and 529 nM, respectively. In data set [3], this compound showed a Kp of 2.31. Besides, in data set [10] (blood), the “Bound (blood)” value was found to be 92.98%. The fraction unbound in [10] (blood, Fu (blood)) is 0.0702; in data set [10] (brain, Fu (brain)) it was 0.0242. Further, the “Bound (brain)” value in data set [10] (brain) was determined as 97.58%.
Turning to `CS(=O)(=O)CCNCc1ccc(-c2ccc3ncnc(Nc4ccc(OCc5cccc(F)c5)c(Cl)c4)c3c2)o1` [Lapatinib, lapatinib], the “Brain Penetration rate (%)” value in data set [5] (setting [15]) was 0.09% and 0.13%.
As for `C=C1[C@@H](C)[C@H]2[C@H](Cc3ccccc3)NC(=O)[C@]23OC(=O)/C=C/[C@H](O)CCC[C@@H](C)C/C=C/[C@H]3[C@@H]1O` [cytochalasin B], the “synergy with p53 activation (nutlin), cell death by annexin V” value in [2] is “unexpectedly synergizes with p53 activation”.
Turning to `CC1(C)CCC(c2ccc(Cl)cc2)=C(CN2CCN(c3ccc(C(=O)NS(=O)(=O)c4ccc(N[C@H](CCN5CCOCC5)CSc5ccccc5)c(S(=O)(=O)C(F)(F)F)c4)cc3)CC2)C1` [navitoclax], the “cell kill under low glucose” value in [2] (gliomaspheres in low glucose (0.25 mM), 72 hours) is “synergistic cell kill”.
Regarding `CC[C@H]1/C=C/C=C/C[C@@H](C)[C@H](O)[C@@](C)(O)C(=O)[C@@H](C)[C@H](O)[C@@H](C)C(=O)[C@@H](C)[C@H](O)[C@@H](C)/C=C/C(=O)O[C@@H]2[C@H](C)[C@H](CC1)O[C@]1(CC[C@H](C)[C@H](C[C@@H](C)O)O1)[C@H]2C` [oligomycin], the “synergy … (annexin V)” value in data set [2] (72 hours) is reported as “did not synergize with nutlin”.
Take `CS(=O)(=O)N1CCN(Cc2cc3nc(-c4cccc5[nH]ncc45)nc(N4CCOCC4)c3s2)CC1` [pictilisib]: the PI3K-AKT-mTOR signaling entry in [12] is “abrogated PI3K-AKT-mTOR signaling”. Also, the apoptotic priming entry in data set [1] (setting [14]) is “significantly higher apoptotic priming”. Further, in data set [2], the “lethality in combination with nutlin” value is reported as “significant, p53-dependent synergistic lethality”. Moreover, the 18F-FDG uptake entry in data set [13] was “significantly reduced”.
As to `NS(=O)(=O)C#Cc1ccccc1` [pifithrin-μ], in [1] (HK301, PFTμ pre-treatment 10 μM for 2 hours, erlotinib 24 hours), the “effect on priming with erlotinib” value is recorded as “markedly reduced priming with erlotinib”.
With `C=C(C)[C@H]1Cc2c(ccc3c2O[C@@H]2COc4cc(OC)c(OC)cc4[C@@H]2C3=O)O1` [rotenone], the “synergy … (annexin V)” value in [2] (72 hours) is listed as “did not synergize with nutlin”.
